Test results as given in ChEMBL document CHEMBL1201862, “PubChem BioAssay data set” (2004).
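Test compounds were applied to cells in 96-well plates for 48 hours at 5 doses. At the GI50, growth is halved.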 The source made the active and inactive calls. Cut-off read from the data, not from the text of the source: active = GI50 up to about 1.1 µM and inactive = higher.

Columns and labels:
Test in all cases: NCI anticancer screen, dose series, 48 h
ACHN = test system: ACHN
HOP-62 = test system: HOP-62
HOP-92 = test system: HOP-92
K562 = test system: K562
LOX IMVI = test system: LOX IMVI
M14 = test system: M14
MCF7 = test system: MCF7
MOLT-4 = test system: MOLT-4
NCI-H23 = test system: NCI-H23
NCI-H460 = test system: NCI-H460
OVCAR-8 = test system: OVCAR-8
SK-OV-3 = test system: SK-OV-3
SNB-75 = test system: SNB-75
SW-620 = test system: SW-620
T47D = test system: T47D
TK-10 = test system: TK-10
U-251 = test system: U-251
UACC-257 = test system: UACC-257
DU-145 = test system: DU-145
MDA-MB-231 = test system: MDA-MB-231

| SMILES | GI50 (ACHN) | GI50 (HOP-62) | GI50 (HOP-92) | GI50 (K562) | GI50 (LOX IMVI) | GI50 (M14) | GI50 (MCF7) | GI50 (MOLT-4) | GI50 (NCI-H23) | GI50 (NCI-H460) | GI50 (OVCAR-8) | GI50 (SK-OV-3) | GI50 (SNB-75) | GI50 (SW-620) | GI50 (T47D) | GI50 (TK-10) | GI50 (U-251) | GI50 (UACC-257) | GI50 (DU-145) | GI50 (MDA-MB-231) |
| --- | --- | --- | --- | --- | --- | --- | --- | --- | --- | --- | --- | --- | --- | --- | --- | --- | --- | --- | --- | --- |
| CC(=O)c1c[nH]cc1CO | > 10 µM (inactive) | > 10 µM (inactive) | > 10 µM (inactive) | > 10 µM (inactive) | > 10 µM (inactive) | > 10 µM (inactive) | > 10 µM (inactive) | > 10 µM (inactive) | > 10 µM (inactive) | > 10 µM (inactive) | > 10 µM (inactive) | > 10 µM (inactive) | > 10 µM (inactive) | > 10 µM (inactive) | > 10 µM (inactive) | > 10 µM (inactive) | > 10 µM (inactive) | – | – | – |
| O=c1c(-c2ccccc2)c2oc(c1-c1ccccc1)CSCc1cccc(c1)CSC2 | 18.5 µM (inactive) | 21.9 µM (inactive) | 34.3 µM (inactive) | 62.5 µM (inactive) | 32.9 µM (inactive) | > 100 µM (inactive) | – | > 100 µM (inactive) | > 100 µM (inactive) | 38.7 µM (inactive) | 43.1 µM (inactive) | 25.1 µM (inactive) | 15.3 µM (inactive) | 30.3 µM (inactive) | – | 87.1 µM (inactive) | 31 µM (inactive) | > 100 µM (inactive) | – | – |
| O=C1CN(c2ccccc2)C(=O)CN1NCNN1CC(=O)N(c2ccccc2)CC1=O | > 100 µM (inactive) | > 100 µM (inactive) | > 100 µM (inactive) | – | – | > 100 µM (inactive) | > 100 µM (inactive) | > 100 µM (inactive) | 58.5 µM (inactive) | > 100 µM (inactive) | > 100 µM (inactive) | > 100 µM (inactive) | > 100 µM (inactive) | > 100 µM (inactive) | – | > 100 µM (inactive) | > 100 µM (inactive) | > 100 µM (inactive) | > 100 µM (inactive) | – |
| Cc1ccc(S(=NS(=O)(=O)c2ccc(C)cc2)c2ccc(C)cc2)cc1 | > 100 µM (inactive) | > 100 µM (inactive) | > 100 µM (inactive) | 36.1 µM (inactive) | – | > 100 µM (inactive) | 68.2 µM (inactive) | > 10 µM (inactive) | 51.6 µM (inactive) | > 100 µM (inactive) | 71.6 µM (inactive) | – | – | > 100 µM (inactive) | 56 µM (inactive) | > 100 µM (inactive) | 57.5 µM (inactive) | > 100 µM (inactive) | > 100 µM (inactive) | – |
| CCc1c2c([nH]c(=S)c1C#N)CCC2 | > 100 µM (inactive) | > 100 µM (inactive) | 2.35 µM (inactive) | > 100 µM (inactive) | > 100 µM (inactive) | > 100 µM (inactive) | > 100 µM (inactive) | > 100 µM (inactive) | > 100 µM (inactive) | > 100 µM (inactive) | > 100 µM (inactive) | > 100 µM (inactive) | > 100 µM (inactive) | > 100 µM (inactive) | – | > 100 µM (inactive) | > 100 µM (inactive) | > 100 µM (inactive) | > 100 µM (inactive) | > 100 µM (inactive) |
| O=Cc1ccc2c(c1)CC1(Cc3ccccc3C1)C2 | 22.1 µM (inactive) | 16.1 µM (inactive) | 16.4 µM (inactive) | 22.1 µM (inactive) | 18.4 µM (inactive) | 13.1 µM (inactive) | 31 µM (inactive) | 18.4 µM (inactive) | 23.3 µM (inactive) | – | 19.3 µM (inactive) | 38.1 µM (inactive) | – | – | 25.9 µM (inactive) | 36.6 µM (inactive) | 17.8 µM (inactive) | 20.5 µM (inactive) | – | 13.5 µM (inactive) |
| C[N+](C)(C)c1ncnc2c1ncn2C1CCCO1 (stereo not given) | > 100 µM (inactive) | > 100 µM (inactive) | > 100 µM (inactive) | > 100 µM (inactive) | – | > 100 µM (inactive) | > 100 µM (inactive) | > 100 µM (inactive) | > 100 µM (inactive) | > 100 µM (inactive) | > 100 µM (inactive) | > 100 µM (inactive) | 84.9 µM (inactive) | > 100 µM (inactive) | > 100 µM (inactive) | > 100 µM (inactive) | > 100 µM (inactive) | > 100 µM (inactive) | > 100 µM (inactive) | – |
| COc1nc2c(c(=O)[nH]1)N=C(c1ccc([N+](=O)[O-])cc1)CC(c1ccccc1)N2 (stereo not given) | 76.4 µM (inactive) | > 100 µM (inactive) | 84.3 µM (inactive) | 58.2 µM (inactive) | 38.4 µM (inactive) | > 100 µM (inactive) | 57.7 µM (inactive) | 54.3 µM (inactive) | 69.8 µM (inactive) | 73.6 µM (inactive) | > 100 µM (inactive) | – | 32.8 µM (inactive) | > 100 µM (inactive) | – | – | > 100 µM (inactive) | > 100 µM (inactive) | > 100 µM (inactive) | > 100 µM (inactive) |
| CCOc1ccc(NC(=O)CC2C(=O)Nc3ccccc3[S+]2[O-])cc1 (stereo not given) | > 52.7 µM (inactive) | > 100 µM (inactive) | 23.4 µM (inactive) | > 100 µM (inactive) | > 100 µM (inactive) | > 100 µM (inactive) | – | > 100 µM (inactive) | > 76.6 µM (inactive) | > 80.4 µM (inactive) | 57.9 µM (inactive) | > 100 µM (inactive) | 20.1 µM (inactive) | > 76.6 µM (inactive) | – | > 71.4 µM (inactive) | 52.4 µM (inactive) | > 100 µM (inactive) | – | – |
| CC(Nc1ncc2c(n1)-c1ccccc1OC2)C(=O)O (stereo not given) | > 100 µM (inactive) | 51.6 µM (inactive) | 35.9 µM (inactive) | 99.8 µM (inactive) | > 100 µM (inactive) | > 100 µM (inactive) | 42.9 µM (inactive) | > 100 µM (inactive) | 86.5 µM (inactive) | > 100 µM (inactive) | > 100 µM (inactive) | > 100 µM (inactive) | 40.7 µM (inactive) | > 100 µM (inactive) | – | > 100 µM (inactive) | > 100 µM (inactive) | 60.3 µM (inactive) | 30.3 µM (inactive) | 92.7 µM (inactive) |
| CC(=O)C(C(=O)c1ccc(C)cc1)[C@H]1OC(C)(C)O[C@H]1[C@H]1COC(C)(C)O1 (stereo not given in full) | 6.15 µM (inactive) | 6.12 µM (inactive) | 7.98 µM (inactive) | 1.78 µM (inactive) | 2.06 µM (inactive) | 6.9 µM (inactive) | 1.97 µM (inactive) | 1.66 µM (inactive) | 2.07 µM (inactive) | 7.05 µM (inactive) | 1.9 µM (inactive) | 10.3 µM (inactive) | 3.78 µM (inactive) | 1.84 µM (inactive) | 6.53 µM (inactive) | 7.73 µM (inactive) | 1.91 µM (inactive) | 5.31 µM (inactive) | – | 5.82 µM (inactive) |
| C[N+](C)(C)CC(=O)N/N=C(/C=C/c1ccccc1)CC1OC(=O)c2ccccc21 (stereo not given) | > 100 µM (inactive) | > 100 µM (inactive) | > 10 µM (inactive) | > 100 µM (inactive) | > 10 µM (inactive) | > 100 µM (inactive) | – | > 100 µM (inactive) | > 10 µM (inactive) | > 100 µM (inactive) | > 100 µM (inactive) | > 100 µM (inactive) | > 100 µM (inactive) | > 100 µM (inactive) | – | > 100 µM (inactive) | > 100 µM (inactive) | > 100 µM (inactive) | – | – |
| COc1ccc(/C=c2/sc3n(c2=O)C(c2ccccc2)C2(O)CCCCC2N=3)cc1 (stereo not given) | > 12.5 µM (inactive) | > 12.5 µM (inactive) | – | > 12.5 µM (inactive) | > 12.5 µM (inactive) | > 12.5 µM (inactive) | > 12.5 µM (inactive) | > 12.5 µM (inactive) | > 12.5 µM (inactive) | > 12.5 µM (inactive) | > 12.5 µM (inactive) | – | > 12.5 µM (inactive) | > 12.5 µM (inactive) | > 12.5 µM (inactive) | > 12.5 µM (inactive) | > 12.5 µM (inactive) | > 12.5 µM (inactive) | – | – |
| Cc1cc2c(C(C)C)c(O)c(O)c(/C=N\CCO)c2c(O)c1-c1c(C)cc2c(C(C)C)c(O)c(O)c(/C=N/CCO)c2c1O | 3.37 µM (inactive) | 2.6 µM (inactive) | 1.75 µM (inactive) | 1.02 µM (active) | 1.64 µM (inactive) | 1.83 µM (inactive) | – | 0.527 µM (active) | 1.76 µM (inactive) | 1.12 µM (active) | 3.3 µM (inactive) | 3.37 µM (inactive) | 2.67 µM (inactive) | 3.83 µM (inactive) | – | 6.4 µM (inactive) | 1.21 µM (inactive) | 2.32 µM (inactive) | – | – |
| COc1cc(C2S/C(=C/c3ccccc3)C(=O)N2c2cccc(Cl)c2)cc(OC)c1OC (stereo not given) | 30.6 µM (inactive) | – | 96.4 µM (inactive) | 21.1 µM (inactive) | 21.1 µM (inactive) | 62.8 µM (inactive) | 34 µM (inactive) | 22 µM (inactive) | 94.4 µM (inactive) | 34.4 µM (inactive) | 57.8 µM (inactive) | > 100 µM (inactive) | – | 46 µM (inactive) | – | > 100 µM (inactive) | 57.7 µM (inactive) | 23.6 µM (inactive) | 23.1 µM (inactive) | > 100 µM (inactive) |
| COc1c(OC2OC(CO)C(O)C(O)C2O)cc2c(c1OC)-c1ccc(OC)c(=O)cc1[C@@H](NC(C)=O)CC2 (stereo not given in full) | > 100 µM (inactive) | > 100 µM (inactive) | 45.3 µM (inactive) | 52.1 µM (inactive) | > 100 µM (inactive) | 76.4 µM (inactive) | – | > 100 µM (inactive) | > 100 µM (inactive) | > 100 µM (inactive) | > 100 µM (inactive) | > 100 µM (inactive) | 25.8 µM (inactive) | > 81.8 µM (inactive) | – | > 100 µM (inactive) | > 100 µM (inactive) | > 84.5 µM (inactive) | – | – |
